# According to patent US11498930B2 (BLUERAY THERAPEUTICS (SHANGHAI) CO., LTD., priority 2018, dated 2022):
# Biological target: SHP2^E76A protein (Homo sapiens (Human), UniProt Q06124, E76A)
# Experiment: SHP2 enzyme activity inhibition experiment
# Assay type: biochemical
# Conditions: SHP2 enzyme activity, Tables 1.1 and 1.2; read-out: IC50
# Experimental: Compound powders were dissolved in DMSO to prepare mother liquor.
# During the experiment, the stock solutions of the compounds were subjected to 3-fold gradient dilution with DMSO, and 10 different test concentrations of each compound were set. […] The protein used was the activated protein SHP^2E76A with amino acid mutation at position 76 of the protein, and the substrate used was DiFMUP (Invitrogen, E12020). […] 50 µL of enzyme solution was added to the detection wells, followed by 50 µL of substrate. […] GraphPad Prism 5 was used for nonlinear regression analysis, and the curve of enzyme activity versus compound concentration was fitted by the equation Y=Bottom+(Top-Bottom)/(1+10^((Log IC50−X)*HillSlope)) to calculate the IC50 value of each compound.
# SHP2^E76A protein, sequence (Q06124 whole entry E76A): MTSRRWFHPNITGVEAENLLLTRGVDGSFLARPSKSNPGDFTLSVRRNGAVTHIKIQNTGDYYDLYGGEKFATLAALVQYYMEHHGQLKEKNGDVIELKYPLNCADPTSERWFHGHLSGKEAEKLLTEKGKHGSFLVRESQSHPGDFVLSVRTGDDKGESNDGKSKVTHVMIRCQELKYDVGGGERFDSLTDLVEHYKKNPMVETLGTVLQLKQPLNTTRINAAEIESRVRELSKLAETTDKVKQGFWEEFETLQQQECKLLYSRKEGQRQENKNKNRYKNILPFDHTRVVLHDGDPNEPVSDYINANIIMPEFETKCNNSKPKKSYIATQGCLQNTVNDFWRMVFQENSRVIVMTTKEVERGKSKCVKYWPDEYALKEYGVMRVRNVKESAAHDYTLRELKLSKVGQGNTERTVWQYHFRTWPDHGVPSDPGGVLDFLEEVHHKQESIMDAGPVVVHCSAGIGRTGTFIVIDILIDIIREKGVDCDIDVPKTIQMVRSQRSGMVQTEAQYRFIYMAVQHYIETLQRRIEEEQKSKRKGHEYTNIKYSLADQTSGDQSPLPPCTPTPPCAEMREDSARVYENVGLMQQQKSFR
row,SMILES,IC50
1,C[C@H]1OCC2(CCN(c3ncc(Sc4ccnc(N)c4Cl)c4nncn34)CC2)[C@H]1N,1000 to 10000 nM
2,C[C@H]1OCC2(CCN(c3ncc(Sc4cccc(Cl)c4Cl)c4nncn34)CC2)[C@H]1N,1000 to 10000 nM
3,C[C@@H]1OCC2(CCN(c3ncc(Sc4cc(N)ncc4Cl)c4nccn34)CC2)[C@@H]1N,< 100 nM
4,N[C@@H]1CCCC12CCN(c1ncc(Sc3cccc4c3C(=O)C(=O)N4)c3nccn13)CC2,100 to 1000 nM
5,Cc1nc(N)cc(Sc2cnc(N3CCC4(CCC[C@H]4N)CC3)n3ccnc23)c1Cl,< 100 nM
6,Cc1ncccc1Sc1cnc(N2CCC3(CCC[C@H]3N)CC2)n2ncnc12,1000 to 10000 nM
7,Nc1ccc(Sc2cnc(N3CCC4(CCC[C@H]4N)CC3)n3ncnc23)cc1,1000 to 10000 nM
8,CN(C)C(=O)C(=O)Nc1cccc(Sc2cnc(N3CCC4(CCC[C@H]4N)CC3)n3ccnc23)c1Cl,100 to 1000 nM
9,Cc1nccc(Sc2cnc(N3CCC4(CC3)COC[C@H]4N)n3cnnc23)c1Cl,100 to 1000 nM
10,"CC1(N)CCN(c2ncc(-c3cccc(Cl)c3Cl)c3nncn23)CC1 [1-(8-(2,3-dichlorophenyl)-[1,2,4]triazolo[4,3-c]pyrimidin-5-yl)-4-methylpiperidin-4-amine]",1000 to 10000 nM
11,"CC1(N)CCN(c2ncc(Sc3cccc(Cl)c3Cl)c3ncnn23)CC1 [1-(8-((2,3-dichlorophenyl)thio)-[1,2,4]triazolo[1,5-c]pyrimidin-5-yl)-4-methylpiperidin-4-amine]",1000 to 10000 nM
12,"NC1CCN(c2ncc(Sc3cccc(Cl)c3Cl)c3nncn23)CC1 [1-(8-((2,3-dichlorophenyl)thio)-[1,2,4]triazolo[4,3-c]pyrimidin-5-yl)piperidin-4-amine]",1000 to 10000 nM
13,"NC1CCN(c2ncc(Sc3cccc(Cl)c3Cl)c3nccn23)CC1 [1-(8-((2,3-dichlorophenyl)thio)imidazo[1,2-c]pyrimidin-5-yl)piperidin-4-amine]",100 to 1000 nM
14,"NCCC1CCN(c2ncc(Sc3cccc(Cl)c3Cl)c3nncn23)CC1 [2-(1-(8-((2,3-dichlorophenyl)thio)-[1,2,4]triazolo[4,3-c]pyrimidin-5-yl)piperidin-4-yl)ethan-1-amine]",1000 to 10000 nM
15,"CC1(N)CCN(c2ncc(Sc3ccnc(N)c3Cl)c3nccn23)CC1 [4-((5-(4-amino-4-methylpiperidin-1-yl)imidazo[1,2-c]pyrimidin-8-yl)thio)-3-chloropyridin-2-amine]",100 to 1000 nM
16,"NC1CC2(CCN(c3ncc(Sc4cccc(Cl)c4Cl)c4nncn34)CC2)C1 [7-(8-((2,3-dichlorophenyl)thio)-[1,2,4]triazolo[4,3-c]pyrimidin-5-yl)-7-azaspiro[3.5]nonan-2-amine]",1000 to 10000 nM
17,"NC1CC2(CCN(c3ncc(Sc4cccc(Cl)c4Cl)c4nccn34)CC2)C1 [7-(8-((2,3-dichlorophenyl)thio)imidazo[1,2-c]pyrimidin-5-yl)-7-azaspiro[3.5]nonan-2-amine]",100 to 1000 nM
18,"Clc1cccc(Sc2cnc(N3CCC4(CCCN4)CC3)n3cnnc23)c1Cl [8-(8-((2,3-dichlorophenyl)thio)-[1,2,4]triazolo[4,3-c]pyrimidin-5-yl)-1,8-diazaspiro[4.5]decane]",1000 to 10000 nM
19,"CC1(N)COCC12CCN(c1ncc(Sc3cccc(Cl)c3Cl)c3nncn13)CC2 (centres unmarked) [8-(8-((2,3-dichlorophenyl)thio)-[1,2,4]triazolo[4,3-c]pyrimidin-5-yl)-4-methyl-2-oxa-8-azaspiro[4.5]decan-4-amine]",1000 to 10000 nM
20,"CC1CN(c2ncc(Sc3cccc(Cl)c3Cl)c3nncn23)CC(C)N1 (centres unmarked) [8-((2,3-dichlorophenyl)thio)-5-(3,5-dimethylpiperazin-1-yl)-[1,2,4]triazolo[4,3-c]pyrimidine]",1000 to 10000 nM
21,"NCC1(c2ccccc2)CCN(c2ncc(Sc3cccc(Cl)c3Cl)c3nccn23)CC1 [(1-(8-((2,3-dichlorophenyl)thio)imidazo[1,2-c]pyrimidin-5-yl)-4-phenylpiperidin-4-yl)methanamine]",100 to 1000 nM
22,"NCC1CCN(c2ncc(Sc3cccc(Cl)c3Cl)c3nccn23)CC1 [(1-(8-((2,3-dichlorophenyl)thio)imidazo[1,2-c]pyrimidin-5-yl)piperidin-4-yl)methanamine]",100 to 1000 nM

row,SMILES,IC50
1,"NCC1CCN(c2ncc(Sc3cccc(Cl)c3Cl)c3nccn23)C1 (centres unmarked) [(1-(8-((2,3-dichlorophenyl)thio)imidazo[1,2-c]pyrimidin-5-yl)pyrrolidin-3-yl)methanamine]",100 to 1000 nM
2,"C[C@H]1OCC2(CCN(c3ncc(Sc4cccc(Cl)c4Cl)c4ncnn34)CC2)[C@H]1N [(3R,4R)-8-(8-((2,3-dichlorophenyl)thio)-[1,2,4]triazolo[1,5-c]pyrimidin-5-yl)-3-methyl-2-oxa-8-azaspiro[4.5]decan-4-amine]",1000 to 10000 nM
3,"C[C@H]1OCC2(CCN(c3ncc(Sc4cccc(Cl)c4Cl)c4ncnn34)CC2)[C@@H]1N [(3R,4S)-8-(8-((2,3-dichlorophenyl)thio)-[1,2,4]triazolo[1,5-c]pyrimidin-5-yl)-3-methyl-2-oxa-8-azaspiro[4.5]decan-4-amine]",100 to 1000 nM
4,"Cc1nccc(Sc2cnc(N3CCC4(CC3)CO[C@H](C)[C@H]4N)n3cnnc23)c1Cl [(3R,4S)-8-(8-((3-chloro-2-methylpyridin-4-yl)thio)-[1,2,4]triazolo[4,3-c]pyrimidin-5-yl)-3-methyl-2-oxa-8-azaspiro[4.5]decan-4-amine]",< 100 nM
5,"N[C@@H]1CCC2CN(c3ncc(Sc4cccc(Cl)c4Cl)c4nncn34)CC21 (stereo partly drawn) [(4R)-2-(8-((2,3-dichlorophenyl)thio)-[1,2,4]triazolo[4,3-c]pyrimidin-5-yl)octahydrocyclopenta[c]pyrrol-4-amine]",1000 to 10000 nM
6,"N[C@@H]1CCCN(c2ncc(Sc3cccc(Cl)c3Cl)c3nccn23)CC1 [(R)-1-(8-((2,3-dichlorophenyl)thio)imidazo[1,2-c]pyrimidin-5-yl)azepan-4-amine]",100 to 1000 nM
7,"N[C@@H]1CCCCC12CCN(c1ncc(Sc3cccc(Cl)c3Cl)c3nccn13)CC2 [(R)-3-(8-((2,3-dichlorophenyl)thio)imidazo[1,2-c]pyrimidin-5-yl)-3-azaspiro[5.5]undecan-7-amine]",100 to 1000 nM
8,"N[C@@H]1CCCC12CCN(c1ncc(-c3cccc(Cl)c3Cl)c3nncn13)CC2 [(R)-8-(8-(2,3-dichlorophenyl)-[1,2,4]triazolo[4,3-c]pyrimidin-5-yl)-8-azaspiro[4.5]decan-1-amine]",1000 to 10000 nM
9,"N[C@@H]1CCCC12CCN(c1ncc(-c3cccc(Cl)c3Cl)c3nccn13)CC2 [(R)-8-(8-(2,3-dichlorophenyl)imidazo[1,2-c]pyrimidin-5-yl)-8-azaspiro[4.5]decan-1-amine]",100 to 1000 nM
10,"Cn1ccnc1Sc1cnc(N2CCC3(CCC[C@H]3N)CC2)n2cnnc12 [(R)-8-(8-((1-methyl-1H-imidazol-2-yl)thio)-[1,2,4]triazolo[4,3-c]pyrimidin-5-yl)-8-azaspiro[4.5]decan-1-amine]",1000 to 10000 nM
11,"CN[C@@H]1CCCC12CCN(c1ncc(Sc3cccc(Cl)c3Cl)c3nncn13)CC2 [(R)-8-(8-((2,3-dichlorophenyl)thio)-[1,2,4]triazolo[4,3-c]pyrimidin-5-yl)-N-methyl-8-azaspiro[4.5]decan-1-amine]",1000 to 10000 nM
12,"CC1(C)COC2(CCN(c3ncc(Sc4cccc(Cl)c4Cl)c4nccn34)CC2)[C@@H]1N [(R)-8-(8-((2,3-dichlorophenyl)thio)imidazo[1,2-c]pyrimidin-5-yl)-3,3-dimethyl-1-oxa-8-azaspiro[4.5]decan-4-amine]",100 to 1000 nM
13,"N[C@@H]1CCCC12CCN(c1ncc(Sc3ccc4c(c3)CCO4)c3nccn13)CC2 [(R)-8-(8-((2,3-dihydrobenzofuran-5-yl)thio)imidazo[1,2-c]pyrimidin-5-yl)-8-azaspiro[4.5]decan-1-amine]",100 to 1000 nM
14,"N[C@@H]1CCCC12CCN(c1ncc(Sc3ccc(Cl)cc3Cl)c3nccn13)CC2 [(R)-8-(8-((2,4-dichlorophenyl)thio)imidazo[1,2-c]pyrimidin-5-yl)-8-azaspiro[4.5]decan-1-amine]",100 to 1000 nM
15,"N[C@@H]1CCCC12CCN(c1ncc(Sc3c(Cl)cccc3Cl)c3nncn13)CC2 [(R)-8-(8-((2,6-dichlorophenyl)thio)-[1,2,4]triazolo[4,3-c]pyrimidin-5-yl)-8-azaspiro[4.5]decan-1-amine]",1000 to 10000 nM
16,"Nc1cc(Sc2cnc(N3CCC4(CCC[C@H]4N)CC3)n3cnnc23)c(Cl)cn1 [(R)-8-(8-((2-amino-5-chloropyridin-4-yl)thio)-[1,2,4]triazolo[4,3-c]pyrimidin-5-yl)-8-azaspiro[4.5]decan-1-amine]",1000 to 10000 nM
17,"N[C@@H]1CCCC12CCN(c1ncc(Sc3ccccc3Cl)c3nccn13)CC2 [(R)-8-(8-((2-chlorophenyl)thio)imidazo[1,2-c]pyrimidin-5-yl)-8-azaspiro[4.5]decan-1-amine]",< 100 nM
18,"N[C@@H]1CCCC12CCN(c1ncc(Sc3cccnc3Cl)c3nccn13)CC2 [(R)-8-(8-((2-chloropyridin-3-yl)thio)imidazo[1,2-c]pyrimidin-5-yl)-8-azaspiro[4.5]decan-1-amine]",< 100 nM
19,"N[C@@H]1CCCC12CCN(c1ncc(Sc3ccnc(Cl)n3)c3nccn13)CC2 [(R)-8-(8-((2-chloropyrimidin-4-yl)thio)imidazo[1,2-c]pyrimidin-5-yl)-8-azaspiro[4.5]decan-1-amine]",< 100 nM
20,"CC(C)c1ccccc1Sc1cnc(N2CCC3(CCC[C@H]3N)CC2)n2ccnc12 [(R)-8-(8-((2-isopropylphenyl)thio)imidazo[1,2-c]pyrimidin-5-yl)-8-azaspiro[4.5]decan-1-amine]",100 to 1000 nM
21,"COc1ccccc1Sc1cnc(N2CCC3(CCC[C@H]3N)CC2)n2ncnc12 [(R)-8-(8-((2-methoxyphenyl)thio)-[1,2,4]triazolo[1,5-c]pyrimidin-5-yl)-8-azaspiro[4.5]decan-1-amine]",100 to 1000 nM
22,"Cc1ncccc1Sc1cnc(N2CCC3(CCC[C@H]3N)CC2)n2cnnc12 [(R)-8-(8-((2-methylpyridin-3-yl)thio)-[1,2,4]triazolo[4,3-c]pyrimidin-5-yl)-8-azaspiro[4.5]decan-1-amine]",100 to 1000 nM
